Read-outs that look alike come from different tables or passages of the source.
Key:
5-HT M-receptor [1] = biological target: T1, 5-HT M-receptor (Oryctolagus cuniculus, UniProt A0A5F9C9J3); assay: pA2 against 5-HT in isolated rabbit heart; type: cell-based
T1 construct: determining their pA2 values in the isolated rabbit heart; from tissue; host or cells: isolated rabbit heart (receptor on the cardiac neurones)
T1 sequence (A0A5F9C9J3 1-494): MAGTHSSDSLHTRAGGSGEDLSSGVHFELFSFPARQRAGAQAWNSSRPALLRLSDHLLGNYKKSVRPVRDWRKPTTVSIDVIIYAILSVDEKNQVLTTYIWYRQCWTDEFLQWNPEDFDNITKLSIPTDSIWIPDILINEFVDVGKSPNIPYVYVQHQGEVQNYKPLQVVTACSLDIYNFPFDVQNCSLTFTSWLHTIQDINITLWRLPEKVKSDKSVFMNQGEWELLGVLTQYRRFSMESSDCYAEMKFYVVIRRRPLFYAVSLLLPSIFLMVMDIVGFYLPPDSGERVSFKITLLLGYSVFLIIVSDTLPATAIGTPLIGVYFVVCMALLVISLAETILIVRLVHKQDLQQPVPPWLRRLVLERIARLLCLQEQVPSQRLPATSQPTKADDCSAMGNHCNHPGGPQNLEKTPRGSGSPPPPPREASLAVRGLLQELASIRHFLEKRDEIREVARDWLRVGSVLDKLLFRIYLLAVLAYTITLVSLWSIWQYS
Experimental: (§1) The activity of the compounds against 5-HT can be assessed by determining their pA2 values in the isolated rabbit heart as described by J. R. Fozard et al, Eur. J. Pharmacol., 59, 195-210 (1979). In the method described, the molar concentration of antagonist which reduces the effects of twice the ED50 of 5-HT to that of the ED50 in the absence of antagonist is determined. The pA2 value is the negative logarithm of said molar concentrations.

[2] = test system: migraine or cluster headaches; assay: Pilot study of intravenous tropyl 3,5-dichlorobenzoate in patients with migraine or cluster headaches; type: in vivo
Source text: Pilot Study of Tolerance To Intravenous Tropyl 3,5-Dichlorobenzoate in Patients With Migraine or Cluster Headaches
This study was designed to evaluate tolerance and, if possible, efficacy of intravenous tropyl 3,5-dichlorobenzoate in patients with migraine or cluster headaches.
Eight patients (4 males), aged 27-47 with known headache disorders of 5-27 years duration (see Table VII) took part in the study but Patients Nos. 2 and 4 had cluster not migraine headaches and the cause of headaches in Patient No. 6 was unknown.
Tropyl 3,5-dichlorobenzoate was provided as a sterile solution, 1 mg/ml; the desired dose to be diluted in 10 ml normal saline for intravenous infusion over a 2 minute period. No other therapy was taken for at least 24 hours before treatment or during the course of therapy.

rat uterus [3] = assay: Inhibition of standard response to oxytocin, rat uterus; type: cell-based; conditions: agonist oxytocin, read-out: Concentration to inhibit standard response to stimulants by 50% (IC50)
Source text: (§2) A selection of classical in vitro pharmacological test preparations (rat uterus, rat fundus, guinea-pig ileum, guinea-pig taenia caeci) were set up according to well-established procedures (see "Pharmacological Experiments on Isolated Preparations" Staff of the Department of Pharmacology, University of Edinburgh, Livingstone, Edinburgh 1970). Various spasmogens were used to elicit contraction of these tissues though mechanisms other than the 5-HT "M" receptor. The concentrations of tropyl 3,5-dimethoxybenzoate (A), tropyl 3,5-dimethylbenzoate (B) and tropyl 3,5-dichlorobenzoate (C) which reduced the effects of a submaximal dose of agonist by 50% were determined (IC50). The results are set forth in Table VI below in which the compounds are identified by the reference letters used above.

rat uterus [4] = assay: Inhibition of standard response to 5-HT, rat uterus; type: cell-based; conditions: agonist 5-HT, read-out: Concentration to inhibit standard response to stimulants by 50% (IC50)
Source text: as §2

LD50 in the rat = conditions: in vivo, iv
rat fundus [5] = assay: Inhibition of standard response to acetylcholine, rat fundus; type: cell-based; conditions: agonist acetylcholine, read-out: Concentration to inhibit standard response to stimulants by 50% (IC50)
Source text: as §2

guinea-pig taenia caeci = assay: Inhibition of standard response to calcium, guinea-pig taenia caeci; type: cell-based; conditions: Cavia porcellus; guinea-pig taenia caeci in potassium-depolarized Tyrode solution, agonist calcium; read-out: Concentration to inhibit standard response to stimulants by 50% (IC50)
Source text: as §2
*In potassiumdepolarized Tyrode solution

[6] = test system: Von Bezold-Jarisch Reflex (5-HT M-receptor); assay: Antagonism of the Von Bezold-Jarisch reflex evoked by 5-HT in the anaesthetized rat; type: in vivo, rat (male Sprague-Dawley); conditions: comparison in words, i.v.
Source text: The activity of these compounds against 5-HT can be assessed in vivo by measurement of the effect of the compound on the Von Bezold-Jarisch Reflex induced by 5-HT injected intravenously into the rat (A. S. Paintal, Physiol. Rev. 53, 159-227, 1973). The transient caridac slowing arises from an increased afferent vagus activity arising from stimulation by 5-HT of sensory afferent fibres in and around the heart (see Example 3).
Antagonism of the Von Bezold-Jarisch reflex evoked by 5-HT in the anaesthetized rat was measured for tropyl 3,5-dimethoxybenzoate (A), tropyl 3,5-dimethylbenzoate (B) and tropyl 3,5-dichlorobenzoate (C) using the following method.
Male Sprague-Dawley rats weighing 250-300 g are anaesthetized with urethane, 1.25 g/kg injected intraperitoneally and set up for recording blood pressure and heart rate as described in J. R. Fozard et al, J. Cardiovas. Pharmacol. 2, 229-245 (1980). A submaximal dose of 5-HT ([…]) is given repeatedly into the cannulated jugular vein and changes in heart rate are quantified. Antagonists are given intravenously and the doses required to just inhibit the response to 5-HT (threshold dose) or to inhibit the response to 5-HT by 50% (ED50) are determined.

rat fundus [7] = assay: Inhibition of standard response to 5-HT, rat fundus; type: cell-based; conditions: agonist 5-HT, read-out: Concentration to inhibit standard response to stimulants by 50% (IC50)
Source text: as §2

LD50 in the mouse = type: in vivo; conditions: in vivo, mouse
mouse = assay: LD50 in the mouse; type: in vivo; conditions: as shown by LD50 values in the mouse and rat
[8] = biological target: T2, rabbit heart (5-HT M receptor) (Oryctolagus cuniculus, UniProt A0A5F9C9J3); assay: Inhibition of standard response to 5-HT, rabbit heart; type: cell-based
T2 construct: RABBIT HEART; from tissue; host or cells: rabbit heart
T2 sequence (A0A5F9C9J3 1-494): T1 sequence (A0A5F9C9J3 1-494)
Experimental: as §1, §2

guinea-pig ileum [9] = assay: Inhibition of standard response to histamine, guinea-pig ileum; type: cell-based; conditions: Cavia porcellus, agonist histamine, read-out: Concentration to inhibit standard response to stimulants by 50% (IC50)
Source text: as §2

guinea-pig ileum [10] = assay: Inhibition of standard response to acetylcholine, guinea-pig ileum; type: cell-based; conditions: Cavia porcellus, agonist acetylcholine, read-out: Concentration to inhibit standard response to stimulants by 50% (IC50)
Source text: as §2

5-HT M-receptor [11] = biological target: T1, 5-HT M-receptor; conditions: reported by J. R. Fozard et al, Eur. J. Pharmacol. 1979 / 1978; cited from earlier work
[12] = isolated rabbit heart, negative log of molar concentration of antagonist reducing effect of twice the ED50 of 5-HT to that of the ED50, read-out: pA2 5-HT (converted)
[13] = Patient 6, i.v., after 4 mg dose
[14] = Patient 8, i.v., first day of 9 mg

Structure (SMILES): COc1ccc(C(=O)O[C@H]2C[C@H]3CC[C@@H](C2)N3C)cc1OC [tropyl 3,4-dimethoxybenzoate, reference compound]
- Kb (5-HT M-receptor [1]; [12]): 0.0631 µM

Structure (SMILES): CN1[C@@H]2CC[C@H]1C[C@@H](OC(=O)c1cc(Cl)cc(Cl)c1)C2 [tropyl 3,5-dichlorobenzoate]
- response ([2]; Patient 1, i.v. 1 mg, then 1 hour later, 2 mg): no effect on headache or nausea
- response ([2]; Patient 2 (cluster headache), i.v. 1 mg): no effect
- response ([2]; Patient 3, i.v. 3 mg): no effect
- response ([2]; Patient 4 (cluster headache), i.v. 3 mg): no effect
- response ([2]; Patient 5, i.v. 5 mg): no effect
- period over which reduction in headache intensity lasted ([2]; Patient 6, i.v.): 21/2
- headache reduction ([2]; Patient 6, i.v. 3 mg single doses): slight reduction in their bilateral headache
- headache reduction ([2]; Patient 6, i.v. 4 mg bid): further amelioration
- response with increased doses ([2]; Patient 6, i.v. 5 mg bid × 2 days, then 6 mg bid × 11 days): no greater effect
- duration of reduction of pain intensity [2, 13]: 4 to 8 h
- onset of reduction of pain intensity [2, 13]: ≤ 30 min
- reduction of pain intensity ([2]; Patient 6, i.v., within 30 minutes after 4 mg dose): 70-80%
- response ([2]; Patient 7, i.v. 3 mg × 1 day, 5 mg × 2 days, 7 mg × 1 day): no effect
- return of headache to pretreatment intensity after stopping therapy ([2]; Patient 8, after stopping i.v. therapy): 6 to 7 days
- reduction of pain ([2]; Patient 8, i.v. 3 mg): about 30%
- response during increasing doses ([2]; Patient 8, i.v. 6 mg × 1 day, 7 mg × 2 days, 9 mg × 1 day): maintained during increasing doses
- episode of pain, nausea, vomiting and photophobia [2, 14]: single episode of pain
- symptom return during treatment [2, 14]: single episode of symptom return
- symptoms (headache, nausea, vomiting, vertigo, photophobia) ([2]; Patient 8, i.v., first dose of 3 mg): decrease in all symptoms
- tolerance of initial dose ([2]; i.v., initial dose 1 mg): well tolerated
- cumulative dose well tolerated ([2]; i.v., over 18 days): ≤ 177 mg
- dose administered without any signs of intolerance, daily ([2]; i.v., patients): ≤ 14 mg/day
- dose well tolerated, repeated doses ([2]; i.v., repeated doses, patients with headaches): up to 7 mg b.i.d.
- number of patients responding to repeated doses ([2]; repeated i.v. doses, marked diminution of headache and associated symptoms, of three patients): two of the three patients
- headache and associated symptoms ([2]; repeated i.v. doses, two of the three patients (Patients Nos. 6 and 8)): marked diminution of headache and associated symptoms
- pain intensity and associated symptoms ([2]; some patients, i.v. doses of 3 mg or greater): pain intensity and associated symptoms were ameliorated
- Kb (5-HT M-receptor [1]): 0.000501 µM
- IC50 (rat uterus [3]): > 50.9 µM
- IC50 (rat uterus [4]): 25.4 µM
- LD50 (LD50 in the rat): 14 mg/kg
- IC50 (rat fundus [5]): 12.4 µM
- IC50 (guinea-pig taenia caeci): 28.6 µM
- potency relative to metoclopramide [6]: many times more potent than metoclopramide
- IC50 (rat fundus [7]): > 50.9 µM
- LD50 (LD50 in the mouse; ip): 32 mg/kg
- LD50 (LD50 in the mouse; iv): 24 mg/kg
- LD50 (LD50 in the mouse; oral): 90 mg/kg
- toxicity in words (mouse): relatively non-toxic
- IC50 [8]: 0.00082 µM
- IC50 (guinea-pig ileum [9]): 3.68 µM
- IC50 (guinea-pig ileum [10]): 8.05 µM

Structure (SMILES): COc1cc(OC)cc(C(=O)O[C@H]2C[C@H]3CC[C@@H](C2)N3C)c1 [tropyl 3,5-dimethoxybenzoate]
- Kb (5-HT M-receptor [1]; [12]): 0.00398 µM
- IC50 (rat uterus [3]): > 52.5 µM
- IC50 (rat uterus [4]): > 52.5 µM
- LD50 (LD50 in the rat): 13 mg/kg
- IC50 (rat fundus [5]): 13.1 µM
- IC50 (guinea-pig taenia caeci): 36.1 µM
- potency relative to metoclopramide [6]: many times more potent than metoclopramide
- IC50 (rat fundus [7]): 40 µM
- LD50 (LD50 in the mouse; ip): 28 mg/kg
- LD50 (LD50 in the mouse; iv): 29 mg/kg
- LD50 (LD50 in the mouse; sc): 17 mg/kg
- LD50 (LD50 in the mouse; oral): 160 mg/kg
- toxicity in words (mouse): relatively non-toxic
- IC50 ([8]; rabbit heart, agonist 5-HT, read-out: Concentration to inhibit standard response to stimulants by 50% (IC50)): 0.0094 µM
- IC50 (guinea-pig ileum [9]): 6.61 µM
- IC50 (guinea-pig ileum [10]): 9.56 µM

Structure (SMILES): CN1[C@@H]2CC[C@H]1C[C@@H](OC(=O)c1cccc(Cl)c1)C2 [tropyl 3-chlorobenzoate]
- Kb (5-HT M-receptor [1]; [12]): 0.00251 µM

Structure (SMILES): Cc1cccc(C(=O)O[C@H]2C[C@H]3CC[C@@H](C2)N3C)c1 [tropyl 3-methylbenzoate]
- Kb (5-HT M-receptor [1]; [12]): 0.00631 µM

Structure (SMILES): CN1[C@@H]2CC[C@H]1C[C@@H](OC(=O)c1ccc(Cl)cc1)C2 [tropyl 4-chlorobenzoate, reference compound]
- Kb (5-HT M-receptor [1]; [12]): 0.1 µM

Structure (SMILES): Cc1ccc(C(=O)O[C@H]2C[C@H]3CC[C@@H](C2)N3C)cc1 [tropyl 4-methylbenzoate, reference compound]
- Kb (5-HT M-receptor [1]; [12]): 0.0158 µM

Structure (SMILES): CN1[C@@H]2CC[C@H]1C[C@@H](OC(=O)c1ccccc1)C2 [tropylbenzoate, reference compound]
- Kb (5-HT M-receptor [1]; [12]): 0.0631 µM
- pA2 value (5-HT) (5-HT M-receptor [11]): 7.12

From US4585866A, “Treatment of migraine with substituted tropyl benzoate derivatives” (Merrell Dow Pharmaceuticals Inc., priority 1984, dated 1986)
